# In patent US7062219B2, “Protein fragment complementation assays for high-throughput and high-content screening” (Odyssey Thera Inc., priority 1997, dated 2006):
# What was measured:
# Format in all cases: cell-based
# PKB/hFt1 complex = experiment: GFP PCA for PKB/hFt1 in COS-1 cells, fluorometric analysis and microscopy; conditions: 10% serum or 20 μg/ml insulin, 30 min
# From the text: (§1) DNA Constructs. The full-length cDNAs encoding PKB, PDK1, PKCalpha, the catalytic subunit of PKA (PKAc), GSK3beta, BAD, Caspase 9 and FKHRL1 were amplified by PCR and subcloned into the eukaryotic expression vector pMT3 [Kaufman, 1989 #23], 5′ of the F[2] fragment of GFP. GFP[1] corresponds to amino acids 1 to 158 and GFP[2] to amino acids 159 to 239 of GFP and was amplified by PCR from pCMS-EGFP (Clontech). The PKB-GFP[2] fusion was also inserted in a pMT3 vector where the ampicillin resistance gene has been replaced by a chloramphenicol resistance gene (pMT3-chloramphenicol) for the purpose of the cDNA library screen. In all cases, a 10 amino acid flexible linker consisting of (GGGGS)2 (SEQ ID No.1) was inserted between the cDNA and the GFP fragments to assure that the orientation/arrangement of the fusions in space is optimal to bring the protein fragments into close proximity. […]
# (§2) COS-1 cells were split in 12-well plates 24 h before transfection. […] The relative amount of reconstituted GFP, a measure of the interaction between the fused protein partners, was detected by fluorometric analysis. […] The background fluorescence intensity corresponding to non-transfected cells was subtracted from the fluorescence intensities of all of the samples. The sub-cellular location of the hFt1/PKB and hFt1/PDK1 protein-protein complexes was also determined by fluorescence microscopy in live cells. […]
# PDK1/hFt1 complex = experiment: GFP PCA for PDK1/hFt1 in COS-1 cells, fluorometric analysis and microscopy; conditions: 10% serum or 20 μg/ml insulin, 30 min
# From the text: as §1, §2
# [1] = tested on: p53/p53 homo-dimerization; experiment: Renilla luciferase PCA (RLuc PCA) for p53/p53 in HEK293T cells
# From the text: Either the wild type RLuc F1 or the mutant RLuc F1(C124A) can be used in combination with the RLuc F2 fragment provided above to generate luminescent PCAs. The following examples below show the results obtained with the wild-type RLuc fragments. The F1 and F2 fragments described above were created by oligonucleotide synthesis (Blue Heron Biotechnology, Bothell, Wash.) and were designated RL[1] (aa 1–160) and RL[2] (aa 161–311). […]
# STAT1/PDK2 served as a negative control PCA. […] Isolated DNAs were quantitated and then normalized to a concentration of 50 ng/microliter.
# (§3) The luciferase PCA was constructed to quantify the homo-dimerization of p53 (p53/p53 PCA) and compared to a negative control RLuc PCA (Pdk2/STAT1). […] For each sample, the luminescence released was captured over 10 seconds, with a 2 second delay after addition of substrate to the sample. Data are reported as relative luminescence units (RLU), and have not been normalized to protein content.
# For each condition tested, cells were transfected in quadruplicate with 0.1 microgram of total DNA (50 ng each of RL[1]-p53 and RL[2]-p53) using Fugene transfection reagent as above. […] Drug was removed by washing two times with PBS, and cell lysates were prepared as described above prior to performing a Renilla Luciferase luminescence detection assay (Promega). […]
# Pdk2:STAT1 = experiment: negative control RLuc PCA (Pdk2/STAT1) in HEK293T cells; conditions: 500 nM CPT for 18 hours
# From the text: STAT1/PDK2 served as a negative control PCA. The full coding sequences for p53, STAT1 and PDK2 were amplified by PCR from sequence verified full-length cDNAs. The resulting PCR products were desalted, digested with appropriate restriction enzymes to allow directional cloning, and fused in-frame to either the 5′ or 3′-end of RL[1], RL[2], RL[3] or RL[4] through a linker encoding a flexible 10 amino acid peptide (GGGGS)2 (SEQ ID No.1) to assure that the orientation/arrangement of the fusions in space is optimal to bring the fluorescent protein fragments into close proximity. DNAs from recombinant constructs were isolated using Qiagen Turbo BioRobot Prep kits (Qiagen, Chatsworth, Calif.) on a Beckman FX robotic workstation (Beckman Coulter, Fullerton, Calif.). Isolated DNAs were quantitated and then normalized to a concentration of 50 ng/microliter.
# as §3, with “content. […]” for “content.”
Compound,amount of the PKB/hFt1 complexes (fluorescence) (PKB/hFt1 complex),subcellular location of PKB/hFt1 complexes (PKB/hFt1 complex),amount of the PDK1/hFt1 complexes (fluorescence) (PDK1/hFt1 complex),subcellular location of PDK1/hFt1 complexes (PDK1/hFt1 complex),"increase in luminescence relative to vehicle (0.1% DMSO) ([1]; 500 nM CPT for 18 hours, HEK293T lysates)",effect on the p53/p53 interaction in the RLuc PCA (in words) ([1]; FIG. 3(B)),effect on luminescence of the negative control PCA (Pdk2:STAT1)
"insulin: insulin (Roche Diagnostics), pathway stimulus",increase,redistribution of the protein-protein complexes from the cytosol to the membrane,increase,redistribution of the protein-protein complexes from the cytosol to the membrane,–,–,–
CC[C@@]1(O)C(=O)OCc2c1cc1n(c2=O)Cc2cc3ccccc3nc2-1 [camptothecin],–,–,–,–,27%,induction,no effect
